Data as given in patent US6448289B1, “Method for repelling arthropods” (priority 2000, dated 2002).

Experiments:
[1] = tested on: yellow fever mosquitoes (Aedes aegypti); assay: Repellency test against yellow fever mosquitoes on treated chick abdomen; assay type: in vivo; conditions: dosage 3 g/m^2, ethanol solution on chick abdomen
Method: Fifty adult yellow fever mosquitoes (Aedes aegypti, approximately equal number of female and male) which were about 3 weeks old after emergence were released in a cage (22 cm×22 cm×30 cm, made of stainless steel and nylon gauge).
A chick whose abdominal feathers had been removed with haircutter was fixed on a wood board (7 cm×15 cm) having a hole of 2.5 cm×4 cm so that its abdominal skin was exposed. Next, the ethanol solution (90 μl) prepared according to Production example 1 was treated on the exposed area of the chick. The chick treated the solution on its abdomen was put on the cage, and the treated abdomen was exposed to the cage just after treating and after 3 hours from treating. After 1, 2 and 4 minutes from putting the chick, the number of yellow fever mosquitoes on the abdomen was counted and summed up. The test was repeated twice.
Further, the same procedure was performed using a chick treated ethanol without active ingredient on its abdomen, and the number of yellow fever mosquitoes on the abdomen was counted. […] [formula]
Furthermore, the same procedure was performed using ethanol solution (90 μl) prepared according to Production example 1, provided that DEET was used in place of Compound [A] for comparison.

[2] = tested on: German cockroaches (Blattella germanica); assay: Repellency test against German cockroaches with impregnated filter paper triangular pillar; assay type: in vivo; conditions: 24 hours later, dosage 833 mg/m^2; for No. of cockroaches (German cockroaches in the triangular pillar): test repeated twice
Method: A triangular pillar (3 cm-equilateral triangle of opening, 6 cm in length) was prepared with filter paper, and the acetone solution (0.9 ml) prepared according to Production example 2 was impregnated with the triangular pillar uniformly and air-dried for 5 to 10 minutes.
In a 650 cc volume plastic cup, said triangular pillar was placed horizontally, German cockroaches (Blattella germanica, 5 males and 5 females) were placed in said plastic cup, covered with nylon gauze, and then observed the number of German cockroaches in the triangular pillar 24 hours later. The test was repeated twice.
Further, the same procedure was performed using a triangular pillar of filter paper impregnated acetone without active ingredient, and the number of German cockroaches in the triangular pillar 24 hours later was counted. […] [formula]
Furthermore, the same procedure was performed using acetone solution prepared according to Production example 2, provided that DEET or MGK874 was used in place of Compound [A] for comparison.

SMILES | No. of mosquitoes (sum of yellow fever mosquitoes on the abdomen of the chick after 1, 2 and 4 minutes) ([1]; After 3 hours) | Repellency (%) ([1]; After 3 hours) | No. of mosquitoes (sum of yellow fever mosquitoes on the abdomen of the chick after 1, 2 and 4 minutes) ([1]; Immediately after treating) | Repellency (%) ([1]; Immediately after treating) | Repellency (%) [2] [%] | No. of cockroaches (German cockroaches in the triangular pillar) [2]
Cc1cc(O)c(C(=O)CCC(C)C)c(=O)o1 [Compound [A], 4-hydroxy-6-methyl-3-(4-methylpentanoyl)-2-pyrone] | 0 | 100 | 0 | 100 | 90 | 2
CCN(CC)C(=O)c1cccc(C)c1 [DEET, N,N-diethyl-m-toluamide] | 3 | 96.5 | 0 | 100 | 0 | 20
CCCCCCCCSCCO [MGK874, 2-(octylthio)ethanol] |  |  |  |  | 15 | 17
